Patent US12152035B2, “Androgen receptor binding molecule and use thereof” (Industrial Technology Research Institute, priority 2020, dated 2024)

Assays:
Format in all cases: cell-based
[1] = test system: full-length androgen receptor; assay: Western blot: degradation of full-length androgen receptor in CWR22RV1 cells; conditions: overnight
Procedure: CWR22Rv1 cells were maintained in RPMI medium supplemented with 10% fetal bovine serum and 1% penicillin-streptomycin at 37° C. in a humidified environment with 5% CO2.
CWR22Rv1 (5×10^5 cells) were seeded in each well of a 6-well plate and incubated overnight. Before compound treatment, the medium in the wells was replaced with a new medium. Cells were treated with different concentrations of compound overnight. Subsequently, cells were harvested by adding cold PBS and scraping cells. Cells were lysed according to general procedures and Western blot assays were performed to assess the ability of compounds to degrade full-length androgen receptor or androgen receptor splice variant 7. The cells or cell lysates were kept on ice at all times.
The following reagents were used in this experiment. Phosphate buffered saline (PBS) (Hyclone, SH30028.02), fetal bovine serum (Hyclone, SH30084.23, Lot AC14563276), penicillin-streptomycin solution (Hyclone, SV30010), 0.5% Trypsin-EDTA (Gibco, 15400-054), CST Lysis Buffer (CST-9803), Halt™ Protease and Phosphatase Inhibitor (ThermoFisher, 78442), Coomassie (Bradford) Protein Assay (Coomassie (Bradford) protein assay) (ThermoFisher, 23200), androgen receptor antibody (Cell Siginaling, CST-5153S), GAPDH antibody (Cell Siginaling, CST-5174S), HRP-goat-anti-rabbit (Jackson Immuno Research, 111-035-003), skim milk, SuperSignal West Pico Maximum Sensitivity substrate (ThermoFisher, 34080).
The compound prepared above was analyzed for its ability to degrade full-length androgen receptor and androgen receptor splice variant 7 in CWR22RV1 cells by Western blotting according to the method shown in item B.3-2 above.

VCaP cells = assay: Cytotoxicity assay (AlamarBlue, 72 hours); conditions: 72 hours treatment, concentration not given
Method in brief: (§1)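 CWR22Rv1 or VCaP cells in RPMI-1640 with 10% FBS were seeded at 1×10^4 cells/well. Next day they were treated with compound, test samples at 100, 10, 1 and 0.1 μM, giving 1% DMSO final. After 72 h, AlamarBlue was added for 4 h, fluorescence was read at Ex/Em 560/590 nm, and % cytotoxicity was calculated.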

CWR22RV1 cells = assay: Cytotoxicity assay (AlamarBlue, 72 hours); conditions: 72 hours treatment, concentration not given
Method in brief: as §1

[2] = compound concentration 0.1 (unit not given)
[3] = compound concentration 1 (unit not given)
[4] = compound concentration 10 (unit not given)

Structure (SMILES)	Degradation ability for full-length androgen receptor (residual rate %) [1, 2]	Degradation ability for full-length androgen receptor (residual rate %) [1, 3]	Degradation ability for full-length androgen receptor (residual rate %) [1, 4]	Cytotoxicity, VCaP cells (cell viability %) (VCaP cells)	Cytotoxicity, CWR22RV1 cells (cell viability %) (CWR22RV1 cells)
Cc1ncsc1-c1ccc(CNC(=O)[C@@H]2C[C@H](O)CN2C(=O)[C@@H](NC(=O)COCCCCOc2ccc(C(=O)NC3C(C)(C)C(Oc4ccc5nnc(C(F)(F)F)n5n4)C3(C)C)cc2)C(C)(C)C)cc1 (some centres unmarked) [Compound 53, 1-(3,3-dimethyl-2-(2-(4-(4-(((1r,3r)-2,2,4,4-tetramethyl-3-((3-(trifluoromethyl)-[1,2,4]triazolo[4,3-b]pyridazin-6-yl)oxy)cyclobutyl)carbamoyl)phenoxy)butoxy)acetamido)butanoyl)-4-hydroxy-N-(4-(4-methylthiazol-5-yl)benzyl)pyrrolidine-2-carboxamide]	− (>80%; −)	+++ (<40%: +++)	+++ (<40%: +++)	+++ (<40% : +++)	+++ (<40% : +++)
Cc1ncsc1-c1ccc(CNC(=O)[C@@H]2C[C@H](O)CN2C(=O)[C@@H](NC(=O)COCCCCCOc2ccc(C3CCN(C4=Nn5c(nnc5C(F)(F)F)CC4)CC3)cc2)C(C)(C)C)cc1 [Compound 21]	− (>80%; −)	− (>80%; −)	+++ (<40%: +++)	+ (60-80% : +)	+++ (<40% : +++)
O=C1CCC(N2C(=O)c3cccc(N4CCN(c5ccc(C(=O)N[C@H]6CC[C@H](Oc7ccc8nnc(C(F)(F)F)n8n7)CC6)cn5)CC4)c3C2=O)C(=O)N1 (some centres unmarked) [Compound 47, 6-(4-(2-(2,6-dioxopiperidin-3-yl)-1,3-dioxoisoindolin-4-yl)piperazin-1-yl)-N-((1r,4r)-4-((3-(trifluoromethyl)-[1,2,4]triazolo[4,3-b]pyridazin-6-yl)oxy)cyclohexyl)nicotinamide]	++ (40-60%: ++)	+++ (<40%: +++)	+ (60-80%: +)	++ (40-60% : ++)	− (<80% : −)
Cc1ncsc1-c1ccc(CNC(=O)[C@@H]2C[C@H](O)CN2C(=O)[C@@H](NC(=O)COCCOc2ccc(C3CCN(C4=Nn5c(nnc5C(F)(F)F)CC4)CC3)cc2)C(C)(C)C)cc1 [Compound 19, (2S,4S)-1-((S)-3,3-dimethyl-2-(2-(2-(4-(1-(3-(trifluoromethyl)-7,8-dihydro-[1,2,4]triazolo[4,3-b]pyridazin-6-yl)piperidin-4-yl)phenoxy)ethoxy)acetamido)butanoyl)-4-hydroxy-N-(4-(4-methylthiazol-5-yl)benzyl)pyrrolidine-2-carboxamide]	− (>80%; −)	− (>80%; −)	− (>80%; −)	− (<80% : −)	− (<80% : −)
CC1(C)C(NC(=O)c2ccc(C#CC3CCN(C4CCN(C(=O)CNc5cccc6c5C(=O)N(C5CCC(=O)NC5=O)C6=O)CC4)CC3)cc2)C(C)(C)C1OC1=Nn2c(nnc2C(F)(F)F)CC1 (centres unmarked) [Compound 52, 4-((1′-((2-(2,6-dioxopiperidin-3-yl)-1,3-dioxoisoindolin-4-yl)glycyl)-[1,4′-bipiperidin]-4-yl)ethynyl)-N-((1r,3r)-2,2,4,4-tetramethyl-3-((3-(trifluoromethyl)-7,8-dihydro-[1,2,4]triazolo[4,3-b]pyridazin-6-yl)oxy)cyclobutyl)benzamide]	− (>80%; −)	++ (40-60%: ++)	++ (40-60%: ++)	+++ (<40% : +++)	+++ (<40% : +++)
O=C1CCC(N2C(=O)c3cccc(N4CCC(CN5CCN(c6ccc(C(=O)N[C@H]7CC[C@H](Oc8ccc9nnc(C(F)(F)F)n9n8)CC7)cn6)CC5)CC4)c3C2=O)C(=O)N1 (some centres unmarked) [Compound 48, 6-(4-((1-(2-(2,6-dioxopiperidin-3-yl)-1,3-dioxoisoindolin-4-yl)piperidin-4-yl)methyl)piperazin-1-yl)-N-((1r,4r)-4-((3-(trifluoromethyl)-[1,2,4]triazolo[4,3-b]pyridazin-6-yl)oxy)cyclohexyl)nicotinamide]	− (>80%; −)	− (>80%; −)	− (>80%; −)	− (<80% : −)	− (<80% : −)
O=C1CCC(N2C(=O)c3cccc(NCC(=O)N4CCC(N5CCC(C#Cc6ccc(C(=O)Nc7ccc(C8CCN(C9=Nn%10c(nnc%10C(F)(F)F)CC9)CC8)cc7)nc6)CC5)CC4)c3C2=O)C(=O)N1 (centres unmarked) [Compound 51, 5-((1′-((2-(2,6-dioxopiperidin-3-yl)-1,3-dioxoisoindolin-4-yl)glycyl)-[1,4′-bipiperidin]-4-yl)ethynyl)-N-(4-(1-(3-(trifluoromethyl)-7,8-dihydro-[1,2,4]triazolo[4,3-b]pyridazin-6-yl)piperidin-4-yl)phenyl)picolinamide]	− (>80%; −)	− (>80%; −)	+ (60-80%: +)	+++ (<40% : +++)	+++ (<40% : +++)
O=C1CCC(N2Cc3cc(C#CCOCCCCOc4ccc(C5CCN(C6=Nn7c(nnc7C(F)(F)F)CC6)CC5)cc4)ccc3C2=O)C(=O)N1 (centres unmarked) [Compound 42]	− (>80%; −)	− (>80%; −)	+ (60-80%: +)	+ (60-80% : +)	+ (60-80% : +)
O=C1CCC(N2Cc3c(NC(=O)CCCCCCOc4ccc(C5CCN(C6=Nn7c(nnc7C(F)(F)F)CC6)CC5)cc4)cccc3C2=O)C(=O)N1 (centres unmarked) [Compound 39, N-(2-(2,6-dioxopiperidin-3-yl)-1-oxoisoindolin-4-yl)-7-(4-(1-(3-(trifluoromethyl)-7,8-dihydro-[1,2,4]triazolo[4,3-b]pyridazin-6-yl)piperidin-4-yl)phenoxy)heptanamide]	− (>80%; −)	+ (60-80%: +)	++ (40-60%: ++)	+++ (<40% : +++)	+++ (<40% : +++)
O=C1CCC(N2Cc3c(NC(=O)COCCCCOc4ccc(C5CCN(c6ccc7nnc(C(F)(F)F)n7n6)CC5)cc4)cccc3C2=O)C(=O)N1 (centres unmarked) [Compound 38, N-(2-(2,6-dioxopiperidin-3-yl)-1-oxoisoindolin-4-yl)-2-(4-(4-(1-(3-(trifluoromethyl)-[1,2,4]triazolo[4,3-b]pyridazin-6-yl)piperidin-4-yl)phenoxy)butoxy)acetamide]	++ (40-60%: ++)	+++ (<40%: +++)	+++ (<40%: +++)	+++ (<40% : +++)	+++ (<40% : +++)
